According to publication PMC9753400, “Conformational alteration in glycan induces phospholipase Cβ1 activation and angiogenesis” (Journal of Biomedical Science, 2022):

Key:
[1] = target: T1, TRAX (translin-associated factor X) (Homo sapiens, UniProt Q99598); assay: SPR (Biacore X), TRAX amine-coupled to CM5 chip; type: binding; conditions: HBS-P running buffer, GSL diluted from methanol stock
T1 construct: gene TSNAX; full-length, cDNA from HUVEC mRNA, pET-21d, nine-histidine tag (text says N-terminal; His codons printed in the R'-primer), expressed in E. coli BL21 (DE3), HisTrap / DEAE / SP-Sepharose; immobilised on CM5 chip
T1 sequence (Q99598 1-290): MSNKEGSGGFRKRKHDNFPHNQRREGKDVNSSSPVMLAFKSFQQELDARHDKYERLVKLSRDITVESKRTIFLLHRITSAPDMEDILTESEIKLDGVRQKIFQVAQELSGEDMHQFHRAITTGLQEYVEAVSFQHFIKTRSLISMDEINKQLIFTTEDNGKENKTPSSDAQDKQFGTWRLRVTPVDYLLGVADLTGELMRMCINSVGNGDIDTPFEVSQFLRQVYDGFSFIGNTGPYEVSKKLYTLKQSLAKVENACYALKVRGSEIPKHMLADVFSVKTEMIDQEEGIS

[2] = target: T2, recombinant human full-length translin-associated factor X (TRAX) (human, UniProt Q99598 1-290); assay: SPR; Biacore X; TRAX amine-coupled to CM5 chip (about 2500 RU), PLCβ1-C flowed over, HBS-P running buffer; competition runs with PLCβ1-C 360 nM plus 0, 1 or 9 μM GHCer; conditions: both partners purified
T2 construct: translin-associated factor X (TRAX), human, full length, cDNA from HUVECs, in pET-21d; Removal of the tag is not mentioned; also called recombinant TRAX; wild-type TRAX; source: E. coli BL21 (DE3) pLys, purified (HisTrap FF, DEAE-Sepharose, SP-Sepharose)
T2 sequence (looked up): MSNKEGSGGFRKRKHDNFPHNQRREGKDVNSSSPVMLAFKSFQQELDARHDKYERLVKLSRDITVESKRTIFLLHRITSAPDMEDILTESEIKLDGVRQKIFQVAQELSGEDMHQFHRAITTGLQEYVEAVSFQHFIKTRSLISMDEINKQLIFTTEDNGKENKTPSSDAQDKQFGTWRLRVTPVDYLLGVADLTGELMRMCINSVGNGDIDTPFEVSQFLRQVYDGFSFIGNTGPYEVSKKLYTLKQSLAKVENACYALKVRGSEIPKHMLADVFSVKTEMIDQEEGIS

Galβ1 → 3GalNAcβ1 → 3Galα1 → 4Galβ1 → 4Glcβ1-ceramide [SSEA3Cer]
Kd ([1]; tested at 10 μM): > 10 µM

Fucα1 → 2Galβ1 → 3GalNAcβ1 → 3Galα1 → 4Galβ1 → 4Glcβ1-ceramide [GHCer]
Kd ([1]; competes with PLCβ1 C-terminal domain): 0.0409 µM

B1: recombinant C-terminal domain of PLCβ1 (PLCβ1-C), amino acids 890 to 1161 (domain or fragment, human, UniProt Q9NQ66 890-1161, looked up)
chain: APAKTEDLIQSVLTEVEAQTIEELKQQKSFVKLQKKHYKEMKDLVKRHHKKTTDLIKEHTTKYNEIQNDYLRRRAALEKSAKKDSKKKSEPSSPDHGSSTIEQDLAALDAEMTQKLIDLKDKQQQQLLNLRQEQYYSEKYQKREHIKLLIQKLTDVAEECQNNQLKKLKEICEKEKKELKKKMDKKRQEKITEAKSKDKSQMEEEKTEMIRSYIQEVVQYIKRLEEAQSKRQEKLVEKHKEIRQQILDEKPKLQVELEQEYQDKFKRLPLEI
notes: phospholipase C β1 (PLCβ1), human, C-terminal domain, residues 890-1161, cDNA from HUVECs, in pET-21d; Removal of the tag is not mentioned; also called recombinant C-terminus of PLCβ1; source: E. coli BL21 (DE3) pLys, purified (HisTrap FF, DEAE-Sepharose, SP-Sepharose)
Kd [2]: ~7.5 µM
